This note sets out measurements from US9688662B2, “N-(2,3-dihydro-1H-pyrrolo[2,3-b]pyridin-5-yl)-4-quinazolinamine and N-(2,3-dihydro-1H-indol-5-yl)-4-quinazolinamine derivatives as perk inhibitors” (Janssen Pharmaceutica NV, priority 2013, dated 2017).

The target in data set [1] is T1, PERK (Homo sapiens, UniProt Q9NZJ5).
T1 sequence (Q9NZJ5 30-1116): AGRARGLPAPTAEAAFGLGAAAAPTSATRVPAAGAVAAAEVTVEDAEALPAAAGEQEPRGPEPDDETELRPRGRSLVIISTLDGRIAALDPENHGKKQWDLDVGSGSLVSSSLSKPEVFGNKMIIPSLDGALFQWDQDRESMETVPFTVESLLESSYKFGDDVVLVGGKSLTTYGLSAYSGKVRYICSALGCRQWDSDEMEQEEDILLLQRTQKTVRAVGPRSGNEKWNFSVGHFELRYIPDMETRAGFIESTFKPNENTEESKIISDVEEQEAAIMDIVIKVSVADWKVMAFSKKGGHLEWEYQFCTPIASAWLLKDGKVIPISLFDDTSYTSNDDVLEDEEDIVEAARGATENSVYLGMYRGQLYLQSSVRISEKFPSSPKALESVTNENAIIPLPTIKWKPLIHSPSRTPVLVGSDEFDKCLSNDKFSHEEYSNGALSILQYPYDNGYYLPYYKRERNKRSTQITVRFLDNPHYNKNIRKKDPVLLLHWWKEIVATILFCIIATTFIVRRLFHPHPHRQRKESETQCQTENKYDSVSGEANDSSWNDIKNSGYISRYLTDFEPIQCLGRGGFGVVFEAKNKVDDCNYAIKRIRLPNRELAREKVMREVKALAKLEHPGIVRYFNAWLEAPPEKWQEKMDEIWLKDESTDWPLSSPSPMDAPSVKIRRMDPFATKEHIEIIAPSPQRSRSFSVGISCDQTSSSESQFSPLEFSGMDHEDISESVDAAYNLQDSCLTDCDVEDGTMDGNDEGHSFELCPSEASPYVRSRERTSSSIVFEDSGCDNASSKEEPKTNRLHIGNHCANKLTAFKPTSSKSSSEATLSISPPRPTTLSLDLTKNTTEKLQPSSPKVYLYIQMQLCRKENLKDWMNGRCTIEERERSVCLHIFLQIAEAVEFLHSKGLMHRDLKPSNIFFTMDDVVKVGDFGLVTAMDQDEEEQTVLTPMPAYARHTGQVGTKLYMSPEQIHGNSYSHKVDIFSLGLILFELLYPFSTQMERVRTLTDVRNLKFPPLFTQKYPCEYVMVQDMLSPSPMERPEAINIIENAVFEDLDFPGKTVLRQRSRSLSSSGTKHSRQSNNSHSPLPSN
Nature of the data set: Cell-based PERK inhibition assay (TR-FRET, phosphorylation of GFP-eIF2 alpha in HEK293 cells, tunicamycin). The protocol: A cell-based TR-FRET assay to measure inhibition of phosphorylation of GFP-eIF2 alpha expressed in HEK293 cells by compounds was set up as follows:
LanthaScreen® eIF2α GripTite cells (Invitrogen M4387) were plated and incubated for 16-20 h at 37° C. and 5% CO2, incubated with test compounds for 60 min, and then stimulated with tunicamycin (2 microg/ml) for 120 min. Culture medium was aspirated from the wells and, the cells were lysed in LanthaScreen® Cellular Assay Lysis Buffer (Invitrogen; PV5598), supplemented with protease inhibitor cocktail (Sigma P8340, 1/1000 dilution) and phosphatase inhibitor cocktail (Sigma P0044, 1/1000 dilution), including 2 nM terbium-labeled eIF2a pSer52 antibody (Invitrogen; PV4816).
On the technique in general: Time-resolved FRET reads energy transfer from a long-lived donor to a nearby acceptor.

In data set [2] the target is T1, PERK. Nature of the data set: In-vitro PERK enzyme inhibition assay (LanthaScreen, KIN_PERK). Format: biochemical. Further details: GST (N); purchased Invitrogen PV5106. Conditions: recombinant GST-PERK, GFP-eIF2 alpha substrate, 5 μM ATP, 60 minutes; for IC50: read-out: KIN_PERK pIC50 (converted). As for the experimental part:
Pharmacology i) In-Vitro PERK Enzyme Inhibition Assay (KIN_PERK pIC50)
The compounds of the invention were tested for inhibitory activity against PERK in an enzyme inhibition assay.
A biochemical PERK kinase assay using LanthaScreen® technology from Invitrogen using recombinant GST-PERK (Invitrogen PV5106), GFP-eIF2 alpha (full length) as substrate (Invitrogen PV4809) and the Terbium-labeled antibody (Tb-anti-peIF2alpha (pSer52); Invitrogen PV4816) as detection reagent, was performed essentially as described by the manufacturer, using following specific parameters: […]

Where [3] appears, read: HEK293 (LanthaScreen eIF2α GripTite) cells, compounds 60 min, tunicamycin 2 microg/ml 120 min, read-out: P-eIF2alpha_Lantha_cell pIC50 (converted).
[4] abbreviates: HEK293 (LanthaScreen eIF2α GripTite) cells, compounds 60 min, tunicamycin 2 microg/ml 120 min.

Take `COc1cc2ncnc(Nc3ccc4c(c3)CCN4C(=O)Cc3cc(F)cc(C(F)(F)F)c3)c2cc1OC` [Compound 43]: the IC50 is 1580 nM on PERK [1] (setting [3]) and 2 nM at PERK [2]. In the case of `COc1cc2ncnc(Nc3ccc4c(c3)CCN4C(=O)CN3Cc4ccccc4C3=O)c2cc1OC` [Compound 34], the IC50 on PERK [2] was 1580 nM.

With `COc1cc2ncnc(Nc3ccc4c(c3)CCN4C(=O)Cc3c(C)[nH]c4c(F)cccc34)c2cc1OC` [Compound 4], the “P-eIF2alpha_Lantha_cell pIC50” value at PERK [1] (setting [4]) amounted to 7.4. Besides, the “KIN_PERK pIC50” value on PERK [2] is on record as 8.8. Take `COc1cc2ncnc(Nc3ccc4c(c3)CCN4C(=O)Cc3c(-c4cnn(C)c4)cnn3C)c2cc1OC` [Compound 52]: the IC50 on PERK [1] (setting [3]) is more than 30200 nM; on PERK [2] it was 631 nM. Taken in the same sequence, the figures for `COc1cc2ncnc(Nc3ccc4c(c3)CCN4C(=O)Cc3c(-c4ccccc4)cnn3C)c2cc1OC` [Compound 48] were 1260 nM and 251 nM.

Turning to `COc1cc2ncnc(Nc3ccc4c(c3)CCN4C(=O)Cc3c(-c4ccsc4)cnn3C)c2cc1OC` [Compound 51], the IC50 on PERK [1] (setting [3]) is 31600 nM; on PERK [2], 251 nM. For `COc1cc2ncnc(Nc3ccc4c(c3)CCN4C(=O)Cc3cn(C(C)C)c4ccccc34)c2cc1OC` [Compound 37], the IC50 at PERK [2] was 1580 nM. As for `COc1cc2ncnc(Nc3ccc4c(c3)CCN4C(=O)Cn3ncc4ccccc43)c2cc1OC` [Compound 24], the IC50 on PERK [1] (setting [3]) is 3160 nM; at PERK [2] it was 79.4 nM. As usually defined, the melting point is the temperature of the solid-liquid transition. In turn, `COCCOc1cc2ncnc(Nc3ccc4c(c3)CCN4C(=O)Cc3c(C)[nH]c4ccccc34)c2cc1OCCOC` [Compound 14] displayed a melting point of 186 °C. In addition, the IC50 at PERK [1] (setting [3]) is 398 nM. `COc1cc2ncnc(Nc3cnc4c(c3)CCN4C(=O)Cc3cc(F)cc(C(F)(F)F)c3)c2cc1OC` [Compound 38]: the IC50 on PERK [2] was 3160 nM. As to `COc1cc2ncnc(Nc3ccc4c(c3)CCN4C(=O)Cc3ccccc3)c2cc1OC` [Compound 21], the results for the IC50 on PERK [1] (setting [3]) and on PERK [2] were 1260 nM and 25.1 nM, respectively.

Consider `COc1cc2ncnc(Nc3ccc4c(c3)CCN4C(=O)Cn3c(C)cc4ccc(F)cc43)c2cc1OC` [Compound 7], for which, at PERK [1] (setting [4]), the “P-eIF2alpha_Lantha_cell pIC50” value turned out to be 7.1. On PERK [2], the “KIN_PERK pIC50” value turned out to be 8.5.

On to `COc1cc2ncnc(Nc3ccc4c(c3)CCN4C(=O)Cc3c(-c4cccs4)cnn3C)c2cc1OC` [Compound 46, 1-[5-[(6,7-dimethoxyquinazolin-4-yl)amino]indolin-1-yl]-2-[2-methyl-4-(2-thienyl)pyrazol-3-yl]ethanone], for which the IC50 at PERK [1] (setting [3]) is approximately 11500 nM; on PERK [2] it was 398 nM. On to `COc1cc2ncnc(Nc3ccc4c(c3)CCN4C(=O)Cc3c(C)[nH]c4ccc(F)cc34)c2cc1OC` [Compound 2], for which the IC50 against PERK [1] was 25.1 nM; on PERK [2] it was 0.631 nM. For the molecule `COc1cc2ncnc(Nc3ccc4c(c3)CCN4C(=O)Cc3cc4ccccc4[nH]3)c2cc1OC` [Compound 32], the IC50 on PERK [1] (setting [3]) was more than 30200 nM; at PERK [2] it was 398 nM.

Consider `COc1cc2ncnc(Nc3ccc4c(c3)CCN4C(=O)Cn3c(=O)n(C)c4ccccc43)c2cc1OC` [Compound 29], for which the IC50 at PERK [1] (setting [3]) is more than 30200 nM; at PERK [2] it was 50.1 nM. On to `COc1cc2ncnc(Nc3ccc4c(c3)CCN4C(=O)Cc3c[nH]c4ncccc34)c2cc1OC` [Compound 27], for which the figures for the IC50 on PERK [1] (setting [3]) and on PERK [2] were 3980 nM and 63.1 nM, respectively.

Consider `COc1ccc2ncnc(Nc3ccc4c(c3)CCN4C(=O)Cc3cc(F)cc(C(F)(F)F)c3)c2c1` [Compound 44], for which the IC50 is more than 30200 nM on PERK [1] (setting [3]) and approximately 21.4 nM on PERK [2]. For `COc1cc2ncnc(Nc3ccc4c(c3)CCN4C(=O)Cc3cn(C)c4ccccc34)c2cc1OC` [Compound 12], in that order: 200 nM and 5.01 nM. Taken in the same sequence, the figures for `Cc1[nH]c2ccccc2c1CC(=O)N1CCc2cc(Nc3ncnc4cc5c(cc34)OCO5)ccc21` [Compound 10] were 158 nM and 3.98 nM. For `COc1cc2ncnc(Nc3ccc4c(c3)CCN4C(=O)Cn3cnc4ccccc43)c2cc1OC` [Compound 31], in that order: more than 30200 nM and 63.1 nM. As for `COc1cc2ncnc(Nc3ccc4c(c3)CCN4C(=O)COc3ccccc3C(C)=O)c2cc1OC` [Compound 25], the results for the IC50 at PERK [1] (setting [3]) and on PERK [2] were 3160 nM and 79.4 nM, respectively. For `COc1cc2ncnc(Nc3ccc4c(c3)CCN4C(=O)Cc3ccsc3)c2cc1OC` [Compound 22], the IC50 on PERK [1] (setting [3]) is 2000 nM; on PERK [2], 63.1 nM. Taken in the same sequence, the figures for `COc1cc2ncnc(Nc3ccc4c(c3)CCN4C(=O)Cc3c(-c4cnoc4)cnn3C)c2cc1OC` [Compound 50] were 3160 nM and 79.4 nM. For `COc1cc2ncnc(Nc3ccc4c(c3)CCN4C(=O)Cc3c(C)nc4ccccn34)c2cc1OC` [Compound 19], in that order: 1260 nM and 12.6 nM. Taken in the same sequence, the figures for `COc1cc2ncnc(Nc3ccc4c(c3)CCN4C(=O)Cn3nc(C)c4ccccc43)c2cc1OC` [Compound 9] were 251 nM and 15.8 nM.

Take `COc1cc2ncnc(Nc3ccc4c(c3)CCN4C(=O)Cc3c(-c4ccoc4)cnn3C)c2cc1OC` [Compound 49]: the IC50 at PERK [1] (setting [3]) was 3160 nM; on PERK [2] it was 50.1 nM. For `COc1cc2ncnc(Nc3ccc4c(c3)CCN4C(=O)Cn3ccc4ccc(F)cc43)c2cc1OC` [Compound 13], in that order: 200 nM and 3.98 nM. Taken in the same sequence, the figures for `COc1cc2ncnc(Nc3ccc4c(c3)C(F)(F)CN4C(=O)Cc3cc(F)ccc3F)c2cc1OC` [Compound 18] were 794 nM and 31.6 nM. As to `COc1ccc2[nH]c(C)c(CC(=O)N3CCc4cc(Nc5ncnc6cc(OC)c(OC)cc56)ccc43)c2c1` [Compound 6], the IC50 on PERK [1] (setting [3]) is 79.4 nM; at PERK [2], 1.58 nM. For `COc1cc2ncnc(Nc3ccc4c(c3)CCN4C(=O)Cc3n[nH]c4ccccc34)c2cc1OC` [Compound 26], in that order: 3160 nM and 63.1 nM.

As to `COc1cc2ncnc(Nc3ccc4c(c3)CCN4C(=O)Cc3n[nH]c4ccc(F)cc34)c2cc1OC` [Compound 23], the figures for the IC50 at PERK [1] (setting [3]) and at PERK [2] were 2000 nM and 31.6 nM, respectively. As for `COc1cc2ncnc(Nc3ccc4c(c3)CCN4C(=O)Cc3c(-c4ccccc4)[nH]c4ccccc34)c2cc1OC` [Compound 33], the IC50 on PERK [2] was 6310 nM.

As for `O=C(Cc1cc(F)ccc1F)N1CCc2cc(Nc3ncnc4cc5c(cc34)OCO5)ccc21` [Compound 35], the IC50 at PERK [2] is more than 10000 nM. Consider `COc1cc2ncnc(Nc3ccc4c(c3)CCN4C(=O)Cc3ccnn3C)c2cc1OC` [Compound 47, 1-[5-[(6,7-dimethoxyquinazolin-4-yl)amino]indolin-1-yl]-2-(2-methylpyrazol-3-yl)ethanone], for which the IC50 at PERK [1] (setting [3]) was 6310 nM; at PERK [2], 63.1 nM.

Take `COc1ccc2c(Nc3ccc4c(c3)CCN4C(=O)Cc3cc(F)cc(C(F)(F)F)c3)ncnc2c1` [Compound 45]: the IC50 at PERK [1] (setting [3]) is more than 30200 nM; at PERK [2] it was 39.8 nM. Molecule `COc1cc2ncnc(Nc3ccc4c(c3)CCN4C(=O)CN3C(=O)c4ccccc4C3=O)c2cc1OC` [Compound 36] gave a melting point of 190 °C. Also, the IC50 at PERK [2] was 3160 nM.
